In US12358922B1, “Berberine alpha-ketoglutarate salt, crystalline form, methods of preparation and applications thereof” (priority 2024, dated 2025):

Columns and labels:
[1] = cited from earlier work
[2] = Solubility measurement of berberine salts in water (Example 3); settings: room temperature (about 20° C.)

Compound	loss of water ([1]; elevated temperature or low humidity environment)	uptake of water ([1]; in water or a high humidity environment, converts to tetrahydrate form)	solubility in water at room temperature [2]
COc1ccc2cc3[n+](cc2c1OC)CCc1cc2c(cc1-3)OCO2 [berberine chloride, berberine chloride dihydrate]	more than 8%	about 8%	–
berberine hemi-sulfate	–	–	> 20 mg/mL
